The values that follow come from paper PMC3322284 (Journal of Pharmacological and Toxicological Methods, 2012).

The structures appear in SMILES notation. Where two headings read alike, the source gives them in different places. Non-standard residues stand in square brackets, D forms with d. Residues, ends and D or L forms follow the SMILES beside them. *: point of attachment. Sta = CC(C)C[C@H](N)[C@@H](O)CC(=O)O; Isovaleryl = CC(C)CC(=O)*

The conditions of data set [1]: humans; ref Fenner et al., 2009; cited from earlier work.
Data set [2] addresses T1, hamster Abcb1a Pgp (Cricetulus griseus, UniProt P21448). As to the kind of experiment: Fluorosome-trans-pgp.
The target of another data set is human MDR1 Pgp (Homo sapiens, UniProt P08183). As to the kind of experiment: Inhibition of net [3H]digoxin transport in LLC-MDR1 cell monolayers. The format is cell-based.
Chain of human MDR1 Pgp (P08183 whole entry): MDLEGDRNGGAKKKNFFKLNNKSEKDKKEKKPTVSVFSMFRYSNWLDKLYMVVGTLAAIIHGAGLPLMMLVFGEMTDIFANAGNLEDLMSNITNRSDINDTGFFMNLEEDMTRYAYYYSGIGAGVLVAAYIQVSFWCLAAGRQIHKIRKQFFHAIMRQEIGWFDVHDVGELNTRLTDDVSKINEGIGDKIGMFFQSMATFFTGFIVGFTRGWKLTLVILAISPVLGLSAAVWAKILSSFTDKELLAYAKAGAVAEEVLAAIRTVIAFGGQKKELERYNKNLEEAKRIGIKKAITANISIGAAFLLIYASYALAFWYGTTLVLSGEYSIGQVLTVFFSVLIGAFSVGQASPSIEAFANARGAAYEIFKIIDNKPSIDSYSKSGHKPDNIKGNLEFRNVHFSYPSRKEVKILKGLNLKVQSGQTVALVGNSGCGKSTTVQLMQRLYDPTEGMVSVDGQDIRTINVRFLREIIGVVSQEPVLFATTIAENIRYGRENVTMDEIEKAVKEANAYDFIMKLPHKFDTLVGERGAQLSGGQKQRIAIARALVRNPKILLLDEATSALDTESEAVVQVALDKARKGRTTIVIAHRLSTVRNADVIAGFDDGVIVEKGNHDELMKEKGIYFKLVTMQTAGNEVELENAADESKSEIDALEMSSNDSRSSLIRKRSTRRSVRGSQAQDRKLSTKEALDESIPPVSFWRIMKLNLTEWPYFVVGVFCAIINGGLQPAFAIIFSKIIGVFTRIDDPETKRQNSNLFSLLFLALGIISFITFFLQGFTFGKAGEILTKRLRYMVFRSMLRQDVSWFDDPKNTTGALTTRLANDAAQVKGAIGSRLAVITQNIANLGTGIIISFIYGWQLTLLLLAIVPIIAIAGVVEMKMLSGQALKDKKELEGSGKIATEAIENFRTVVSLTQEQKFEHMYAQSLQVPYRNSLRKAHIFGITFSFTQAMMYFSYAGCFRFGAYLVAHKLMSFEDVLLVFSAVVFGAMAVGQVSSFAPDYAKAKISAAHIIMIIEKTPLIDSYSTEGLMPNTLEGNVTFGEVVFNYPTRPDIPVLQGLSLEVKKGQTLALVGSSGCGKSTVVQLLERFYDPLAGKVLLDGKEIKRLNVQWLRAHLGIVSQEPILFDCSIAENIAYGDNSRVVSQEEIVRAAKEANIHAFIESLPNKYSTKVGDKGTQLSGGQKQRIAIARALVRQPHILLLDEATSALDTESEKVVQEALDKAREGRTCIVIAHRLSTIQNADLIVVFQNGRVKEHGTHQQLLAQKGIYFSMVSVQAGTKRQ
Data set [3] deals with T1, hamster Abcb1a Pgp. The data set is described as follows: biochemical. The format is binding.
Where [4] appears, read: IC50,Fl, Table 2, half-maximal concentration for inhibition of transport in Fl-t-pgp.
Setting [5] is: IC50 Fl-t-pgp, inhibition of S-HR transport, 2 mM ATP, 23°C.
Where [6] appears, read: read-out: IC50 Fl-t-pgp, inhibition of S-HR transport, 2 mM ATP, 23°C.

By IC50 is commonly meant the concentration needed to halve the response being measured. One may read the Kd as a measure of binding affinity in units of concentration. Higher therefore signals weaker binding.

T1 sequence (P21448 whole entry): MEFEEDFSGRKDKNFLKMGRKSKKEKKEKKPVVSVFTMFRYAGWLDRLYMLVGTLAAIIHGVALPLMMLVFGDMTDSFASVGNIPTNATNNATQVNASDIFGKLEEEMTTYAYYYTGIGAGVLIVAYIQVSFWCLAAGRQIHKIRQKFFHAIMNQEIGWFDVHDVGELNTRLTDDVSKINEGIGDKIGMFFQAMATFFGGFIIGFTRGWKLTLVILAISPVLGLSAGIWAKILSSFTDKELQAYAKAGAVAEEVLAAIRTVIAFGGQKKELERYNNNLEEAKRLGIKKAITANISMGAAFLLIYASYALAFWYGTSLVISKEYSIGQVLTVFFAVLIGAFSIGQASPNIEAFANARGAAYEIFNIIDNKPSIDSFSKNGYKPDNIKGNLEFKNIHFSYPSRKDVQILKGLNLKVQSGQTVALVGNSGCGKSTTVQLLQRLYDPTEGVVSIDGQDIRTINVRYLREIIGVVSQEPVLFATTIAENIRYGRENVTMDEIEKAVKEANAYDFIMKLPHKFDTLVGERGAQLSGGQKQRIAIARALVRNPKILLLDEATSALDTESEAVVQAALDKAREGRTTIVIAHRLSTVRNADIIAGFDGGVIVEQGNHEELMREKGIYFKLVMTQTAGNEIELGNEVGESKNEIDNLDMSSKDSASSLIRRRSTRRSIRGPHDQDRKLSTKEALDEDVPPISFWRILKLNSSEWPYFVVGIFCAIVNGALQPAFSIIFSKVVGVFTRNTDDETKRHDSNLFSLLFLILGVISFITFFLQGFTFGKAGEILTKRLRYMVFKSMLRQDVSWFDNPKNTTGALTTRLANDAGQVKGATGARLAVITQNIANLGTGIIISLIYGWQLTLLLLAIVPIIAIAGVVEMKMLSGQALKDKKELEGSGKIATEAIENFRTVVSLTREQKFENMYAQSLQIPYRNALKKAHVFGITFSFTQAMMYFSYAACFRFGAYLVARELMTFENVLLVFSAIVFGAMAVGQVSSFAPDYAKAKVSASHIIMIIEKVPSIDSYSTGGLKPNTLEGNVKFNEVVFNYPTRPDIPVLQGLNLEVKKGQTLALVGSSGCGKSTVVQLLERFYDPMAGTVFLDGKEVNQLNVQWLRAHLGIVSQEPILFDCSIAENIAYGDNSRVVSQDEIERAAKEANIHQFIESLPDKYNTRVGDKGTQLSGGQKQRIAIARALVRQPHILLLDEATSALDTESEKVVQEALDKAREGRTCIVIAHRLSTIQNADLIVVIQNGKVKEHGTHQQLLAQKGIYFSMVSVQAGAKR

As to `CCCCc1oc2ccccc2c1C(=O)c1cc(I)c(OCCN(CC)CC)c(I)c1` [Amiodarone], the “[I2] estimated gastrointestinal concentration of drug after oral dose” value in data set [1] was 4693 µM.

At hamster Abcb1a Pgp [2], `CCc1oc2ccccc2c1C(=O)c1cc(Br)c(O)c(Br)c1` [Benzbromarone] had an IC50 of 44 µM.

In the case of `C[C@H](CS)C(=O)N1CCC[C@H]1C(=O)O` [Captopril], the concentration for half-maximal inhibition (IC50) against human MDR1 Pgp was over 1000 µM. For the same compound, in data set [1], the “[I2] estimated gastrointestinal concentration of drug after oral dose” value is 230 µM and the “[I] peak plasma concentration of drug at steady state” value (from here on “[I] peak plasma concentration of drug”) was 0.23 µM.

Turning to `COc1ccccc1OCCNCC(O)COc1cccc2[nH]c3ccccc3c12` (centres unmarked) [Carvedilol], the half-maximal inhibitory concentration (IC50) on human MDR1 Pgp was 32 µM; on hamster Abcb1a Pgp [2] (setting [4]) it was 3.8 µM; against hamster Abcb1a Pgp [2] (setting [5]), 3.8 µM. The “[I2] estimated gastrointestinal concentration of drug after oral dose” value in data set [1] is recorded as 61.5 µM. The “[I] peak plasma concentration of drug” value in data set [1] is on record as 0.13 µM.

At hamster Abcb1a Pgp [2], `C[C@]12CC[C@H](O)C[C@H]1CC[C@@H]1[C@@H]2C[C@@H](O)[C@]2(C)[C@@H](C3=CC(=O)OC3)CC[C@]12O` [Digoxigenin] registered an IC50 of 520 µM.

Compound `C[C@H]1O[C@@H](O[C@H]2[C@@H](O)C[C@H](O[C@H]3[C@@H](O)C[C@H](O[C@H]4CC[C@@]5(C)[C@H](CC[C@@H]6[C@@H]5C[C@@H](O)[C@]5(C)[C@@H](C7=CC(=O)OC7)CC[C@]65O)C4)O[C@@H]3C)O[C@@H]2C)C[C@H](O)[C@@H]1O` [Digoxin] showed a half-maximal inhibitory concentration (IC50) against hamster Abcb1a Pgp [2] (setting [5]) of 80 µM.

For `COc1ccc([C@@H]2Sc3ccccc3N(CCN(C)C)C(=O)[C@@H]2OC(C)=O)cc1` [Diltiazem], the IC50 on hamster Abcb1a Pgp [2] (setting [4]) came to 24.2 µM; against hamster Abcb1a Pgp [2] (setting [5]), 24 µM.

On hamster Abcb1a Pgp [2] (setting [5]), `COc1cc2c(cc1OC)CN(CCc1ccc(NC(=O)c3cccc4c(=O)c5cccc(OC)c5[nH]c34)cc1)CC2` [Elacridar] displayed an IC50 of 0.1 µM. Also, the Kd at hamster Abcb1a Pgp [3] stood at 0.59 µM.

Take `COc1ccc2c(c1)c(CC(=O)O)c(C)n2C(=O)c1ccc(Cl)cc1` [Indomethacin]: 51 µM corresponded to half-maximal inhibition at hamster Abcb1a Pgp [2] (setting [5]) (IC50).

With `COC(=O)C1=C(C)NC(C)=C(C(=O)OC(C)C)C1c1cccc2nonc12` (centres unmarked) [Isradipine], the IC50 was determined as 29 µM against human MDR1 Pgp, 6.6 µM against hamster Abcb1a Pgp [2] (setting [4]) and 6.6 µM against hamster Abcb1a Pgp [2] (setting [5]). Besides, the “[I2] estimated gastrointestinal concentration of drug after oral dose” value in data set [1] is 161.5 µM. Besides, in data set [1], the “[I] peak plasma concentration of drug” value is reported as 0.02 µM.

For `COc1ccc2c3c([nH]c2c1)[C@H](CC(C)C)N1C(=O)[C@H](CCC(=O)OC(C)(C)C)NC(=O)[C@@H]1C3` [Ko143], the IC50 at hamster Abcb1a Pgp [2] (setting [6]) worked out at 7.5 µM.

For `COCC(=O)O[C@]1(CCN(C)CCCc2nc3ccccc3[nH]2)CCc2cc(F)ccc2[C@@H]1C(C)C` [Mibefradil], the “[I2] estimated gastrointestinal concentration of drug after oral dose” value in data set [1] is given as 1211 µM. Besides, the “[I] peak plasma concentration of drug” value in data set [1] was 2.42 µM. The half-inhibitory concentration (IC50) on hamster Abcb1a Pgp [2] (setting [4]) and against hamster Abcb1a Pgp [2] (setting [5]) was 7.1 µM throughout.

For `CC(=O)NC(CC(C)C)C(=O)NC(CC(C)C)C(=O)NC(Cc1ccc(O)cc1)C(N)=O` (stereo not drawn) [NAc-LLY-amide] (Ac-Leu-Leu-Tyr-NH2; configuration not given here), on hamster Abcb1a Pgp [2] (setting [6]), the IC50 came out at 13 µM.

`C=CCN1CC[C@]23c4c5ccc(O)c4O[C@H]2C(=O)CC[C@@]3(O)[C@H]1C5` [Naloxone] came in with a concentration for half-maximal inhibition (IC50) against hamster Abcb1a Pgp [2] of 210 µM.

On hamster Abcb1a Pgp [2] (setting [5]), `Cc1c(O)cccc1C(=O)N[C@@H](CSc1ccccc1)[C@H](O)CN1C[C@H]2CCCC[C@H]2C[C@H]1C(=O)NC(C)(C)C` [Nelfinavir] returned a 50% inhibitory concentration (IC50) of 0.59 µM. Binding at hamster Abcb1a Pgp [3] was put at a Kd of 0.98 µM.

Consider `COC(=O)C1=C(C)NC(C)=C(C(=O)OCCN(C)Cc2ccccc2)C1c1cccc([N+](=O)[O-])c1` (centres unmarked) [Nicardipine], for which, in data set [1], the “[I2] estimated gastrointestinal concentration of drug after oral dose” value is 248 µM. Moreover, the “[I] peak plasma concentration of drug” value in data set [1] is 0.18 µM. The IC50 against hamster Abcb1a Pgp [2] (setting [4]) and at hamster Abcb1a Pgp [2] (setting [5]) was 0.93 µM each time. The compound also showed a dissociation constant (Kd) on hamster Abcb1a Pgp [3] of 6.5 µM.

With `CCOC(=O)C1=C(C)NC(C)=C(C(=O)OC)C1c1cccc([N+](=O)[O-])c1` (centres unmarked) [Nitrendipine], the “[I2] estimated gastrointestinal concentration of drug after oral dose” value in data set [1] was 222.0 µM. Also, the “[I] peak plasma concentration of drug” value in data set [1] was 0.03 µM. Further, the IC50 against hamster Abcb1a Pgp [2] (setting [4]) and against hamster Abcb1a Pgp [2] (setting [5]) was 5.8 µM each time.

Compound `CC(=O)O[C@H]1C(=O)[C@@]2(C)[C@H]([C@H](OC(=O)c3ccccc3)[C@]3(O)C[C@H](OC(=O)[C@H](O)[C@@H](NC(=O)c4ccccc4)c4ccccc4)C(C)=C1C3(C)C)[C@]1(OC(C)=O)CO[C@@H]1C[C@@H]2O` [Paclitaxel] had a half-inhibitory concentration (IC50) against hamster Abcb1a Pgp [2] (setting [5]) of 1.2 µM. For the same compound, the affinity on hamster Abcb1a Pgp [3], expressed as Kd, was 0.038 µM.

For the compound `CC(C)CC(=O)N[C@H](C(=O)N[C@H](C(=O)N[C@@H](CC(C)C)[C@@H](O)CC(=O)N[C@@H](C)C(=O)N[C@@H](CC(C)C)[C@@H](O)CC(=O)O)C(C)C)C(C)C` [Pepstatin A] (Isovaleryl-VV[Sta]A[Sta]-OH), the half-maximal inhibitory concentration (IC50) against hamster Abcb1a Pgp [2] (setting [5]) came to 29 µM.

For the compound `CCCN(CCC)S(=O)(=O)c1ccc(C(=O)O)cc1` [Probenecid], on hamster Abcb1a Pgp [2] (setting [5]), the midpoint of inhibition, the IC50, lay at 240 µM.

For the compound `CC(=O)[C@H]1CC[C@H]2[C@@H]3CCC4=CC(=O)CC[C@]4(C)[C@H]3CC[C@]12C` [Progesterone], half-maximal inhibition on hamster Abcb1a Pgp [2] (setting [5]) (IC50) required 3.7 µM.

Turning to `COc1ccccc1OCC(O)CN1CCN(CC(=O)Nc2c(C)cccc2C)CC1` (centres unmarked) [Ranolazine], the IC50 is 130 µM on human MDR1 Pgp, 64.1 µM at hamster Abcb1a Pgp [2] (setting [4]) and 64 µM against hamster Abcb1a Pgp [2] (setting [5]). Besides, the “[I2] estimated gastrointestinal concentration of drug after oral dose” value in data set [1] was 9356 µM. Also, in data set [1], the “[I] peak plasma concentration of drug” value is 8.4 µM.

At hamster Abcb1a Pgp [2] (setting [5]), `COC(=O)[C@H]1[C@H]2C[C@@H]3c4[nH]c5cc(OC)ccc5c4CCN3C[C@H]2C[C@@H](OC(=O)c2cc(OC)c(OC)c(OC)c2)[C@@H]1OC` [Reserpine] yielded an IC50 of 0.31 µM. This compound came in with a dissociation constant (Kd) on hamster Abcb1a Pgp [3] of 0.73 µM.

As to `CN[C@H]1CC[C@@H](c2ccc(Cl)c(Cl)c2)c2ccccc21` [Sertraline], in data set [1], the “[I2] estimated gastrointestinal concentration of drug after oral dose” value is recorded as 2612 µM and the “[I] peak plasma concentration of drug” value is on record as 0.39 µM. The compound further showed an IC50 on hamster Abcb1a Pgp [2] (setting [4]) of 29 µM. Half-maximal inhibition at hamster Abcb1a Pgp [2] (setting [5]) (IC50) was put at 29 µM.

`COc1cc2c(cc1OC)CN(CCc1ccc(NC(=O)c3cc(OC)c(OC)cc3NC(=O)c3cnc4ccccc4c3)cc1)CC2` [Tariquidar] displayed an IC50 on hamster Abcb1a Pgp [2] of 0.021 µM.

As to `CCCc1nc2c(C)cc(-c3nc4ccccc4n3C)cc2n1Cc1ccc(-c2ccccc2C(=O)O)cc1` [Telmisartan], the IC50 on human MDR1 Pgp was determined as 17 µM; on hamster Abcb1a Pgp [2] (setting [4]), 0.12 µM; against hamster Abcb1a Pgp [2] (setting [5]), 0.12 µM. The “[I2] estimated gastrointestinal concentration of drug after oral dose” value in data set [1] is listed as 933 µM. In data set [1], the “[I] peak plasma concentration of drug” value is listed as 1.11 µM.

Consider `Cc1c(C)c2c(c(C)c1O)CCC(C)(COc1ccc(CC3SC(=O)NC3=O)cc1)O2` (centres unmarked) [Troglitazone], for which the IC50 against human MDR1 Pgp is 12 µM; against hamster Abcb1a Pgp [2] (setting [4]) it was 5.2 µM; on hamster Abcb1a Pgp [2] (setting [5]), 5.2 µM. Further, the “[I2] estimated gastrointestinal concentration of drug after oral dose” value in data set [1] is given as 3264 µM. Moreover, in data set [1], the “[I] peak plasma concentration of drug” value is recorded as 3.62 µM.

At hamster Abcb1a Pgp [2] (setting [5]), `C/C=C/C[C@@H](C)C(=O)[C@H]1C(=O)N[C@@H](C(C)C)C(=O)N(C)CC(=O)N(C)[C@@H](CC(C)C)C(=O)N[C@@H](C(C)C)C(=O)N(C)[C@@H](CC(C)C)C(=O)N[C@@H](C)C(=O)N[C@H](C)C(=O)N(C)[C@@H](CC(C)C)C(=O)N(C)[C@@H](CC(C)C)C(=O)N(C)[C@@H](C(C)C)C(=O)N1C` [Valspodar] had a concentration for half-maximal inhibition (IC50) of 0.25 µM. For the same compound, the affinity on hamster Abcb1a Pgp [3], expressed as Kd, was 0.08 µM.

For the compound `O[C@@H](COc1cccc2ncccc12)CN1CCN([C@@H]2c3ccccc3[C@@H]3[C@H](c4ccccc42)C3(F)F)CC1` [Zosuquidar], the half-maximal inhibitory concentration (IC50) on hamster Abcb1a Pgp [2] (setting [6]) came out at 0.59 µM. The compound also showed a dissociation constant Kd on hamster Abcb1a Pgp [3] (fluorescence quenching of purified Pgp in 2 mM CHAPS) of 0.055 µM.
